Source: patent publication US12448461B2, “ABCB5 ligands and substrates” (Children's Medical Center Corporation, priority 2018, dated 2025)

How the values were obtained:
murine Abcb5 = target: T1, murine Abcb5 (Mus musculus, UniProt B5X0E4); assay: ELISA: plates coated with PIP1, PIP2 or PIP3 incubated with wildtype mouse Abcb5-expressing skin tissue; type: binding; conditions: absent in Abcb5 knockout tissue
T1 construct: wildtype mouse Abcb5-expressing skin tissue; from tissue; host or cells: wild-type mouse skin tissue
T1 sequence (B5X0E4 1-1255): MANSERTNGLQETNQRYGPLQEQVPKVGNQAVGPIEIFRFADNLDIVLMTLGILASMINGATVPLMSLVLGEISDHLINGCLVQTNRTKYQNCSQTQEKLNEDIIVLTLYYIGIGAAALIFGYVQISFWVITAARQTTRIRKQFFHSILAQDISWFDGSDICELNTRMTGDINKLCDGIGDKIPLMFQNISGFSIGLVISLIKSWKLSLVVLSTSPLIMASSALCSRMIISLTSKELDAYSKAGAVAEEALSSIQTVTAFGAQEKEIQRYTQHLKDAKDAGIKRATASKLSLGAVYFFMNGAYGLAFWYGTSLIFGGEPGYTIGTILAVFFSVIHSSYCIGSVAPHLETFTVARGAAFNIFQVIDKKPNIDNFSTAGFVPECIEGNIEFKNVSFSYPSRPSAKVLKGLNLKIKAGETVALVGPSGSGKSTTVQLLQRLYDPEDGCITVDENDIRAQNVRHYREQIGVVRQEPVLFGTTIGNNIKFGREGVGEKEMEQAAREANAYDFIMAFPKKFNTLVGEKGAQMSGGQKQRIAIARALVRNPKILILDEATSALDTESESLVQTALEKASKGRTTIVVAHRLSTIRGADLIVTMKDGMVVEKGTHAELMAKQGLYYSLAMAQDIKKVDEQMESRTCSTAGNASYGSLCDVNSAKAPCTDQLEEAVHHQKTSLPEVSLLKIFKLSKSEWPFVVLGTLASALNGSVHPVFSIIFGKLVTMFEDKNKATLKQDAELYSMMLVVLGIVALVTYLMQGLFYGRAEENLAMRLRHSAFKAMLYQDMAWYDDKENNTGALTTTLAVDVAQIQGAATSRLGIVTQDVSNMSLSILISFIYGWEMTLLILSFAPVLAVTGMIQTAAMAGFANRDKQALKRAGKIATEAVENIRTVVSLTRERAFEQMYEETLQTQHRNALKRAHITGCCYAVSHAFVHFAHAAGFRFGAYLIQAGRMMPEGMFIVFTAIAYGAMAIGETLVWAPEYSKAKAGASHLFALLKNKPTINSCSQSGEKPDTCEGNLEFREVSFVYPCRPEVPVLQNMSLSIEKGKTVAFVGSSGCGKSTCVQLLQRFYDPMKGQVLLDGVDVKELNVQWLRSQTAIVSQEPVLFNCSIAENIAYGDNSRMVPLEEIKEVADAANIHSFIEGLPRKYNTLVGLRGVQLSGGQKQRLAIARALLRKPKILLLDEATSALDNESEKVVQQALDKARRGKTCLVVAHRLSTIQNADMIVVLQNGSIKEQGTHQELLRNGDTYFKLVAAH
Experimental: (§1) ELISA plates coated with PIP1, PIP2 or PIP3 were incubated with either purified recombinant human ABCB5 isoform 2 (812 aa, NCBI Reference Sequence: NP_848654.3), wildtype mouse Abcb5-expressing skin tissue, or Abcb5 non-expressing skin tissue derived from ABCB5 knockout mice (as a specificity control), followed by bound ABCB5 detection using a murine ABCB5-specific monoclonal antibody (Ksander et al Nature 2014). […] Similar results were obtained using the murine ABCB5 mAb clone 3C2-1D12 (Frank NY et al. J Biol Chem. 2003) as a detection antibody.

ABCB5 [1] = assay: Surface plasmon resonance (SPR) binding and antibody competition on PIP1, PIP2 and PIP3 surfaces
[2] = target: T2, recombinant human ABCB5 isoform 2 (Homo sapiens, UniProt Q2M3G0); assay: ELISA: plates coated with PIP1, PIP2 or PIP3 incubated with recombinant human ABCB5 isoform 2; type: binding
T2 sequence (Q2M3G0 446-1257): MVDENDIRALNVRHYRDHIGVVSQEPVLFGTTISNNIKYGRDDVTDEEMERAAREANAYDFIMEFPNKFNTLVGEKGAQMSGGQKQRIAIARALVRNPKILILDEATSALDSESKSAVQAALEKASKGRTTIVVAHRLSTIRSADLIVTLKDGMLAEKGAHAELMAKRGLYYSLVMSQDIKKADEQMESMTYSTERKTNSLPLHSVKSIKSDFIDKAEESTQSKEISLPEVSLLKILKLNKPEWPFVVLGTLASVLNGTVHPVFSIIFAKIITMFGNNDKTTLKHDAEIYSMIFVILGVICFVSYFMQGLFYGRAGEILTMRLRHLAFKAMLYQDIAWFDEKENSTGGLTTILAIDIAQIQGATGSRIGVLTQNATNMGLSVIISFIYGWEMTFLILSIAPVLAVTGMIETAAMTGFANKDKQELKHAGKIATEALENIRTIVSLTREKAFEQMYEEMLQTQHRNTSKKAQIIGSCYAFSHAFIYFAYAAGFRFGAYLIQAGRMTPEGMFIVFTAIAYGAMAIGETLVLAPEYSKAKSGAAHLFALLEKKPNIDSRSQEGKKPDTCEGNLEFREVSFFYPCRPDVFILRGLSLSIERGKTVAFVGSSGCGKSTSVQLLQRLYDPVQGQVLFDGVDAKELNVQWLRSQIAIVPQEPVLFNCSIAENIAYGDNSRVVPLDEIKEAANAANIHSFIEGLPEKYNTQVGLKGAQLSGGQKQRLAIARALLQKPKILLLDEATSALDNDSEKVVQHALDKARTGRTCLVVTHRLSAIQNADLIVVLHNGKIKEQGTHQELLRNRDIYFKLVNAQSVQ
Experimental: as §1

ABCB5 [3] = target: T3, ABCB5 (Homo sapiens, UniProt Q2M3G0); assay: Immunoprecipitation with anti-PIP2 or anti-PIP3 antibody from ABCB5-expressing melanoma cells, ABCB5 immunoblot; type: binding
T3 construct: Immunoprecipitation from human ABCB5-expressing melanoma cells; endogenous in cells
T3 sequence (Q2M3G0 1-1257): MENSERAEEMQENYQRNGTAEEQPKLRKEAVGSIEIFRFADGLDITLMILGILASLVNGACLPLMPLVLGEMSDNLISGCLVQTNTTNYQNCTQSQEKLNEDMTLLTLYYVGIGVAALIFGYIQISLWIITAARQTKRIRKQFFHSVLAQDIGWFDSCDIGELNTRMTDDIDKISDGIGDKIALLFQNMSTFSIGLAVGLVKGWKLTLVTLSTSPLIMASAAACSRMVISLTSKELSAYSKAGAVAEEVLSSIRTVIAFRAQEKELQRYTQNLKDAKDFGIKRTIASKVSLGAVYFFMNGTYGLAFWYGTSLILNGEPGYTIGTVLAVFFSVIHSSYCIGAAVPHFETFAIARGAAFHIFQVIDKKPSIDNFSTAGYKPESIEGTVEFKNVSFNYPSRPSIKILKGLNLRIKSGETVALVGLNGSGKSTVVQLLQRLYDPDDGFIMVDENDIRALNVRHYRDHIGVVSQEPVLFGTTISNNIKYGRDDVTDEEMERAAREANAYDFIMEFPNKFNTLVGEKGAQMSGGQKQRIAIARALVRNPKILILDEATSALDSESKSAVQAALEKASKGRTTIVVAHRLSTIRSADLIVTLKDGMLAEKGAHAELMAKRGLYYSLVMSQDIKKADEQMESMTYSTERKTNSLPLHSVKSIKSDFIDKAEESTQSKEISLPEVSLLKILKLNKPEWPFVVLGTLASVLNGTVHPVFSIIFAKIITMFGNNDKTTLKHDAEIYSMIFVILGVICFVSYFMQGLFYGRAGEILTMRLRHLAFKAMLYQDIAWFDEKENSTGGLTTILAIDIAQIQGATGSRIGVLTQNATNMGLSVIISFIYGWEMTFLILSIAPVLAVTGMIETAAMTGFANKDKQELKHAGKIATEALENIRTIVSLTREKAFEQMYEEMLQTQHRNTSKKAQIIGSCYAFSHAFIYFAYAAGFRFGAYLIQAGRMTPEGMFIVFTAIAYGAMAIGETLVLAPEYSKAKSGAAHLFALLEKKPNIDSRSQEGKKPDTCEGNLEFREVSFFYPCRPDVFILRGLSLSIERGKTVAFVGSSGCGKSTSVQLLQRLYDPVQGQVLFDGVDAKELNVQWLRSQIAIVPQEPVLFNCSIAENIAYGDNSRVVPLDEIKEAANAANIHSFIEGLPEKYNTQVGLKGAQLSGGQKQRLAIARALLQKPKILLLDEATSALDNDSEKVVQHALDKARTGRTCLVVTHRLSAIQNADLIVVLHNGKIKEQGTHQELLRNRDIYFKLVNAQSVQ
Source text: PIP2 pulldown was confirmed using immunoblotting with PIP2 antibody in FIG. 1A (lower panel).

[4] = test system: Tyr::CreER; BrafCA; Ptenlox/lox genetic mouse melanoma model; assay: Vemurafenib treatment in 4-HT inducible genetic mouse melanoma model on ABCB5 WT or KO background; type: in vivo; conditions: vemurafenib-treated ABCB5 WT mice
[5] = target: T4, purified recombinant human ABCB5 (Homo sapiens, UniProt Q2M3G0); assay: Competition ELISA: PIP1, PIP2 or PIP3 binding to ABCB5 with increasing doses of competitor
T4 sequence (Q2M3G0 1-812 isoform Q2M3G0-1): T2 sequence (Q2M3G0 446-1257)
Experimental: ELISA plates coated with PIP1, PIP2 or PIP3 were incubated with purified recombinant human ABCB5 (P-glycoprotein ABCB5 [Homo sapiens] GenBank: AAO73470.1) for binding, in the absence or presence of increasing doses of PtdIns-(1,2-dioctanoyl), a synthetic analog of natural phosphatidylinositol (PtdIns) containing C8:0 fatty acids at the sn-1 and sn-2 positions (CAS Registry Number 899827-36-2).

Compound: PIP3
- binding to murine Abcb5 (murine Abcb5): bound
- binding to ABCB5 by SPR (ABCB5 [1]): binding
- relative efficiency of binding to ABCB5 ([2]; PIP2 and PIP3 compared with PIP1): more efficient
- binding to recombinant human ABCB5 ([2]; detection with ABCB5-specific monoclonal antibody): bound
- co-precipitation of ABCB5 on lipid pulldown (ABCB5 [3]): co-precipitation of ABCB5 protein

Compound: CCCS(=O)(=O)Nc1ccc(F)c(C(=O)c2c[nH]c3ncc(-c4ccc(Cl)cc4)cc23)c1F [vemurafenib]
- formation of vemurafenib-resistant tumors [4]: 100%

Compound: CCCCCCCC(=O)OCC(COP(=O)(O)OC1C(O)C(O)C(O)C(O)C1O)OC(=O)CCCCCCC (stereo not drawn) [PtdIns-(1,2-dioctanoyl)]
- inhibition of binding of PIP1, PIP2 or PIP3 to ABCB5 ([5]; increasing doses): competitively inhibit
- concentration of apparent saturation of the inhibitory effect ([5]; inhibition of PIP1, PIP2 or PIP3 binding to ABCB5): 0.1 mM

Compound: CCCCCCCC(=O)OC[C@H](COP(=O)(O)O[C@@H]1[C@H](O)[C@H](O)[C@@H](OP(=O)(O)O)[C@H](OP(=O)(O)O)[C@H]1O)OC(=O)CCCCCCC [PI (4,5) P2, diC8]
- binding to ABCB5 by SPR (ABCB5 [1]): shown to bind
